In PubChem BioAssay AID256 (DTP/NCI, 2004):
Values joined by “and” are separate entries in the source; they are usually repeats but may differ in a detail not shown here. Equal entries are not always repeated. Inconclusive results and toxic doses are left out.

System: CD2F1 mice, L1210 leukemia ip, survival T/C
Test: NCI In Vivo Anticancer Drug Screen. Data for tumor model L1210 Leukemia (intraperitoneal) in CD2F1 (CDF1) mice
Settings: endpoint: mean survival time, higher = longer survival
How it was run: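 Activity against a transplanted murine tumor was judged by comparing the compound group with a vehicle group. The outcome in the treated animals was divided by that in the controls.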

[1] = dose: 6.0 mg/kg/injection, schedule: Q01DX001 (ip), vehicle: saline
[2] = dose: 100.0 mg/kg/injection, schedule: Q01DX009 (ip), vehicle: saline
[3] = dose: 200.0 mg/kg/injection, schedule: Q01DX009 (ip), vehicle: saline
[4] = dose: 400.0 mg/kg/injection, schedule: Q01DX009 (ip), vehicle: saline

For COc1cc(C(C2=C(O)c3ccccc3C(=O)C2=O)C2=C(O)c3ccccc3C(=O)C2=O)cc(Br)c1O, the T/C (dose: 100.0 mg/kg/injection, schedule: Q01DX009 (ip), vehicle: alcohol) was 101 % of control and the T/C (dose: 200.0 mg/kg/injection, schedule: Q01DX009 (ip), vehicle: alcohol) was 93 % of control.

With COc1cccc2c1C(=O)c1c(O)c3c(c(O)c1C2=O)C[C@@](O)(C(=O)CO)C[C@@H]3OC1CC(N)C(OC)C(C)O1 (stereo partly drawn) the T/C (dose: 0.54 mg/kg/injection, schedule: Q01DX009 (ip), vehicle: saline) was 159 % of control, the T/C (dose: 0.65 mg/kg/injection, schedule: Q01DX009 (ip), vehicle: saline) was 207 % of control and the T/C (dose: 0.9 mg/kg/injection, schedule: Q01DX009 (ip), vehicle: saline) was 229 % of control. For the same molecule, the T/C (dose: 1.08 mg/kg/injection, schedule: Q01DX009 (ip), vehicle: saline) was 319 % of control, the T/C (dose: 1.3 mg/kg/injection, schedule: Q01DX001 (ip), vehicle: saline) was 161 % of control and the T/C (dose: 1.8 mg/kg/injection, schedule: Q01DX009 (ip), vehicle: saline) was 250 % of control. The T/C (dose: 2.16 mg/kg/injection, schedule: Q01DX001 (ip), vehicle: saline) was 161 % of control, the T/C (dose: 3.0 mg/kg/injection, schedule: Q01DX009 (ip), vehicle: saline) was 93 % of control and the T/C (dose: 3.6 mg/kg/injection, schedule: Q01DX001 (ip), vehicle: saline) was 168 % of control and 170 % of control. For the same molecule, the T/C [1] was 189 % of control and 353 % of control and the T/C (dose: 10.0 mg/kg/injection, schedule: Q01DX001 (ip), vehicle: saline) was 187 % of control and 260 % of control.

O=C1N[C@@H]([C@H]2CC[C@H](Cl)CN2)C(=O)N[C@H]1[C@H]1CC[C@H](Cl)CN1 was tested, and the T/C (dose: 0.25 mg/kg/injection, schedule: Q01DX009 (iv), vehicle: saline) was 100 % of control, the T/C (dose: 0.25 mg/kg/injection, schedule: Q03HX016 (ip), vehicle: saline) was 115 % of control and the T/C (dose: 0.5 mg/kg/injection, schedule: Q01DX009 (iv), vehicle: saline) was 112 % of control. For the same molecule, the T/C (dose: 0.5 mg/kg/injection, schedule: Q01DX009 (oral), vehicle: saline) was 108 % of control, the T/C (dose: 0.5 mg/kg/injection, schedule: Q03HX016 (ip), vehicle: saline) was 151 % of control and the T/C (dose: 0.5 mg/kg/injection, schedule: Q03HX024 (ip), vehicle: saline) was 196 % of control. The T/C (dose: 1.0 mg/kg/injection, schedule: Q01DX001 (iv), vehicle: saline) was 108 % of control, the T/C (dose: 1.0 mg/kg/injection, schedule: Q01DX009 (ip), vehicle: saline) was 167 % of control and the T/C (dose: 1.0 mg/kg/injection, schedule: Q01DX009 (oral), vehicle: saline) was 160 % of control. For the same molecule, the T/C (dose: 1.0 mg/kg/injection, schedule: Q03HX008 (ip), vehicle: saline) was 305 % of control, the T/C (dose: 1.0 mg/kg/injection, schedule: Q03HX016 (ip), vehicle: saline) was 252 % of control and the T/C (dose: 1.0 mg/kg/injection, schedule: Q03HX024 (ip), vehicle: saline) was 300 % of control. The T/C (dose: 1.0 mg/kg/injection, schedule: Q04DX003 (oral), vehicle: saline) was 116 % of control, the T/C (dose: 1.0 mg/kg/injection, schedule: Q08DX002 (ip), vehicle: saline) was 120 % of control and the T/C (dose: 2.0 mg/kg/injection, schedule: Q01DX001 (iv), vehicle: saline) was 109 % of control. For the same molecule, the T/C (dose: 2.0 mg/kg/injection, schedule: Q01DX001 (oral), vehicle: saline) was 111 % of control, the T/C (dose: 2.0 mg/kg/injection, schedule: Q01DX001 (sc), vehicle: saline) was 123 % of control and the T/C (dose: 2.0 mg/kg/injection, schedule: Q01DX009 (ip), vehicle: saline) was 223 % of control. The T/C (dose: 2.0 mg/kg/injection, schedule: Q01DX009 (iv), vehicle: saline) was 160 % of control, the T/C (dose: 2.0 mg/kg/injection, schedule: Q01DX009 (oral), vehicle: saline) was 158 % of control and the T/C (dose: 2.0 mg/kg/injection, schedule: Q03HX008 (ip), vehicle: saline) was 354 % of control. The T/C (dose: 2.0 mg/kg/injection, schedule: Q03HX016 (ip), vehicle: saline) was 95 % of control, the T/C (dose: 2.0 mg/kg/injection, schedule: Q03HX024 (ip), vehicle: saline) was 93 % of control and the T/C (dose: 2.0 mg/kg/injection, schedule: Q04DX003 (ip), vehicle: saline) was 171 % of control. The T/C (dose: 2.0 mg/kg/injection, schedule: Q04DX003 (oral), vehicle: saline) was 119 % of control, the T/C (dose: 2.0 mg/kg/injection, schedule: Q08DX002 (oral), vehicle: saline) was 117 % of control and the T/C (dose: 2.5 mg/kg/injection, schedule: Q01DX001 (ip), vehicle: water) was 155 % of control. The T/C (dose: 4.0 mg/kg/injection, schedule: Q01DX001 (ip), vehicle: saline) was 157 % of control, the T/C (dose: 4.0 mg/kg/injection, schedule: Q01DX001 (oral), vehicle: saline) was 124 % of control and the T/C (dose: 4.0 mg/kg/injection, schedule: Q01DX009 (ip), vehicle: saline) was 107 % of control. For the same molecule, the T/C (dose: 4.0 mg/kg/injection, schedule: Q01DX009 (iv), vehicle: saline) was 157 % of control, the T/C (dose: 4.0 mg/kg/injection, schedule: Q01DX009 (oral), vehicle: saline) was 86 % of control and the T/C (dose: 4.0 mg/kg/injection, schedule: Q04DX003 (ip), vehicle: saline) was 188 % of control and 221 % of control. For the same molecule, the T/C (dose: 4.0 mg/kg/injection, schedule: Q04DX003 (oral), vehicle: saline) was 156 % of control, the T/C (dose: 4.0 mg/kg/injection, schedule: Q08DX002 (ip), vehicle: saline) was 179 % of control and the T/C (dose: 5.0 mg/kg/injection, schedule: Q01DX001 (ip), vehicle: water) was 241 % of control and 269 % of control. For the same molecule, the T/C [1] was 261 % of control, the T/C (dose: 6.7 mg/kg/injection, schedule: Q01DX001 (ip), vehicle: saline) was 188 % of control and the T/C (dose: 8.0 mg/kg/injection, schedule: Q01DX001 (ip), vehicle: saline) was 286 % of control and 501 % of control. The T/C (dose: 8.0 mg/kg/injection, schedule: Q01DX001 (iv), vehicle: saline) was 157 % of control, the T/C (dose: 8.0 mg/kg/injection, schedule: Q01DX001 (oral), vehicle: saline) was 154 % of control and 175 % of control and the T/C (dose: 8.0 mg/kg/injection, schedule: Q01DX001 (sc), vehicle: saline) was 162 % of control. For the same molecule, the T/C (dose: 8.0 mg/kg/injection, schedule: Q04DX003 (ip), vehicle: saline) was 246 % of control, the T/C (dose: 8.0 mg/kg/injection, schedule: Q04DX003 (oral), vehicle: saline) was 164 % of control and the T/C (dose: 8.0 mg/kg/injection, schedule: Q08DX002 (ip), vehicle: saline) was 415 % of control. The T/C (dose: 8.0 mg/kg/injection, schedule: Q08DX002 (oral), vehicle: saline) was 155 % of control, the T/C (dose: 10.0 mg/kg/injection, schedule: Q01DX001 (ip), vehicle: water) was 296 % of control and 349 % of control and the T/C (dose: 16.0 mg/kg/injection, schedule: Q01DX001 (iv), vehicle: saline) was 212 % of control. The T/C (dose: 16.0 mg/kg/injection, schedule: Q01DX001 (oral), vehicle: saline) was 100 % of control, the T/C (dose: 16.0 mg/kg/injection, schedule: Q01DX001 (sc), vehicle: saline) was 94 % of control and the T/C (dose: 16.0 mg/kg/injection, schedule: Q04DX003 (ip), vehicle: saline) was 94 % of control and 95 % of control. For the same molecule, the T/C (dose: 16.0 mg/kg/injection, schedule: Q04DX003 (oral), vehicle: saline) was 90 % of control, the T/C (dose: 16.0 mg/kg/injection, schedule: Q08DX002 (ip), vehicle: saline) was 100 % of control and the T/C (dose: 16.0 mg/kg/injection, schedule: Q08DX002 (oral), vehicle: saline) was 90 % of control.

NS(=O)(=O)c1ccc(N=Cc2ccccc2O)cc1 was tested, and the T/C (dose: 100.0 mg/kg/injection, schedule: Q01DX009 (ip), vehicle: saline with Tween-80) was 95 % of control, the T/C (dose: 200.0 mg/kg/injection, schedule: Q01DX009 (ip), vehicle: saline with Tween-80) was 89 % of control and the T/C (dose: 400.0 mg/kg/injection, schedule: Q01DX009 (ip), vehicle: saline with Tween-80) was 86 % of control.

With O=C(OCc1ccccc1)C1CCCN1C(=O)C(CSC(c1ccccc1)(c1ccccc1)c1ccccc1)NC(c1ccccc1)(c1ccccc1)c1ccccc1 (stereo not drawn) the T/C (dose: 50.0 mg/kg/injection, schedule: Q01DX009 (ip), vehicle: saline) was 97 % of control, the T/C [2] was 97 % of control and the T/C [3] was 95 % of control. The T/C [4] was 95 % of control.

In the case of C(=N\C(/N=C/c1ccccc1)c1ccccc1)/c1ccccc1, the T/C (dose: 100.0 mg/kg/injection, schedule: Q01DX001 (ip), vehicle: saline) is reported as 100 % of control, the T/C (dose: 200.0 mg/kg/injection, schedule: Q01DX001 (ip), vehicle: saline) is reported as 103 % of control and the T/C (dose: 400.0 mg/kg/injection, schedule: Q01DX001 (ip), vehicle: saline) is reported as 106 % of control.

CC(=O)NN1C(=O)c2ccccc2C1=O was tested, and the T/C (dose: 100.0 mg/kg/injection, schedule: Q04DX003 (ip), vehicle: Klucel (hydroxypropylcellulose) (HPC)) was 98 % of control, the T/C (dose: 200.0 mg/kg/injection, schedule: Q04DX003 (ip), vehicle: Klucel (hydroxypropylcellulose) (HPC)) was 98 % of control and the T/C (dose: 400.0 mg/kg/injection, schedule: Q04DX003 (ip), vehicle: Klucel (hydroxypropylcellulose) (HPC)) was 98 % of control.

In the case of O=Cc1c[nH]c2ccc(Br)cc12, the T/C [2] is reported as 105 % of control, the T/C [3] is reported as 113 % of control and the T/C [4] is reported as 100 % of control.
